The values below come from patent US20070248967A1, “Reporter Assay Using Secrectory Luminescent Enzymes” (NATIONAL INSTITUTE OF ADVANCED INDUSTRIAL SCIENCE, priority 2005, published 2007).

In one series the test system is CUP1 promoter. Description: CuSO4 induction experiment, reporter assay using mCLuc or β-galactosidase. In kind it is cell-based, Saccharomyces cerevisiae. Conditions: 0.025 mM CuSO4-containing medium, pmCLuRA-CUP1 (8 hours) / pGALuRA-CUP1 (16 hours); FIGS. 13A, 13B. How it is done:
It has been known that the expression of the CUP1 gene (systematic gene name: YHR053C) of Saccharomyces cerevisiae is induced in the presence of copper ions (Gene, 48, 13-22 (1986)). That is, a CUP1 promoter is a copper-ion-inducible promoter. Thus, with the use of pmCLuRA-CUP1, it was examined whether or not such induction would be observed in the case of mCLuc. In addition, a similar experiment was carried out using β-galactosidase. The results of both experiments were compared and examined.
Three clones of a transformant comprising pmCLuRA-CUP1 and those of a transformant comprising pGALuRA-CUP1 described above were separately introduced into a synthetic liquid medium (SD+KHLadeW 200 mM KPi). Each resultant was shake-cultured overnight at 30° C. until the stationary phase.
Subsequently, 5 μl of the culture solution containing a transformant comprising pmCLuRA-CUP1 was introduced into each well of a 96-deep well plate, with 1 ml of a 0.025 mM CuSO4-containing synthetic liquid medium (SD+KHLadeW 200 mM KPi) or a CuSO4-free synthetic liquid medium (SD+KHLadeW 200 mM KPi) having been added to such well. This was followed by shake culture at 30° C. 8 hours after the initiation of culture, a portion of the culture solution was recovered, followed by measurement of absorbance at 600 nm (OD600) and relative light units (RLU) from a luminometer in accordance with the method in Example 1. […]
In general terms: Reporter assays use an easily measured gene product as a stand-in for the process of interest.

Series [1] concerns CLuc. In words: Influences of various chemical substances on CLuc activity measurement. It is filed as biochemical, Cypridina noctiluca. Conditions: highly concentrated chemical substance added to culture supernatant; FIG. 6.
Source text: For the CLuc activity measurement, an LB960 luminometer (Berthold) was used.
The measurement values were divided by absorbance of the culture solution at 600 nm such that CLuc activity subjected to a correction of the number of yeast cell bodies was obtained.
Influences of chemical substances on CLuc activity measurement were examined, as such substances coexist with yeast culture supernatants upon CLuc activity measurement following the secretory expression of CLuc in yeasts.
Chemical substances (2 μl) that had been adjusted to have different concentrations were separately added to 20 μl of the prepared culture supernatant, followed by CLuc activity measurement.
The relative residual activity of each sample is represented by the mean value and the standard deviation on the condition that the CLuc activity of a sample to which a chemical substance was not added is determined to be 100%.
The test system of series [2] is CLuc. Conditions: final concentration in reaction solution, 100 mM Tris-HCl pH 7.4; FIG. 3.
Procedure: In addition, a stock solution of the culture supernatant of the transformant comprising pCLuRA-TDH3 was separately serial-diluted 10-fold, 100-fold, 1000-fold, and 10000-fold with an SD medium containing a 100 mM phosphate buffer solution so that the resulting diluted culture supernatants were used. Specifically, the concentration of the culture supernatant stock solution was determined to be 100% such that 10-fold, 100-fold, 1000-fold, and 10000-fold diluted culture supernatants had supernatant concentrations of 10%, 1%, 0.1%, and 0.01%, respectively.
Then, CLuc activity measurement was carried out as with the case of Example 1.
In FIG. 3, plots indicate results obtained by using culture supernatants that had been serial-diluted with a culture supernatant stock solution (100%) with reaction solutions with different final concentrations of luciferin.
Another series has as its system GAL1 promoter. In words: Galactose induction experiment, reporter assay using mCLuc or β-galactosidase. Conditions: 2% galactose-containing medium without glucose, 32 hours, pmCLuRA-GAL1 / pGALuRA-GAL1; FIGS. 14A, 14B. In kind it is cell-based, Saccharomyces cerevisiae. How it is done: It has been known that the expression of GAL1 gene (systematic gene name: YBR020W) of Saccharomyces cerevisiae is induced in the absence of glucose and the presence of galactose (West, R. W. J. et al., Mol. Cell. Biol., 4: 2467-2478 (1984)). That is, a GAL1 promoter is a galactose-inducible promoter. Thus, with the use of pmCLuRA-GAL1, it was examined whether or not such induction would be observed in the case of mCLuc. In addition, a similar experiment was carried out using β-galactosidase. The results of both experiments were compared and examined.
Three clones of a transformant comprising pmCLuRA-GAL1 and those of a transformant comprising pGALuRA-GAL1 described above were separately introduced into a synthetic liquid medium (SD+KHLadeW 200 mM KPi). […]
Subsequently, 20 μl of the culture solution containing a transformant comprising pmCLuRA-GAL1 was introduced into each well of a 96-deep well plate, with 1 ml of a 2% galactose-containing synthetic liquid medium (SC+KHLadeW (prepared by removing glucose from SD+KHLWade in Example 1) 200 mM KPi) or a synthetic liquid medium (SD+KHLadeW 200 mM KPi) having been added to such well. […] 32 hours after the initiation of culture, a portion of the culture solution was recovered, followed by measurement of absorbance at 600 nm (OD600) and relative light units (RLU) from a luminometer in accordance with the method in Example 1. […]

Series [3] can be described thus: Stability of CLuc in yeast culture supernatants. In kind it is physicochemical. How it is done: The prepared culture supernatants were incubated at 0° C., 25° C., 40° C., and 50° C. for 0, 15, 30, and 60 minutes, respectively, followed by CLuc activity measurement.
In FIG. 4, each plot indicates the mean value and the standard deviation of relative residual activities of each sample subjected to incubation at a given temperature for a given period of time. The vertical axis denotes the relative residual activity based on the CLuc activity (100%) of a sample that had not been incubated.

Series [4] in a line: Stability of CLuc activity after sampling of culture solutions. It is filed as physicochemical. Particulars: culture solution incubated at 25° C. for 30 minutes; FIG. 8. How it is done:
Thus, in order to examine the stability of CLuc activity after sampling of culture solutions, a transformant comprising pCLuRA-TDH3 prepared in Example 1 was cultured as with the case of Example 1. Then, the yeast culture solution was partially collected (sampling), followed by incubation at 25° C. for 0, 10, 20, and 30 minutes. After incubation, the CLuc activity of each culture solution sample was measured as with the case of Example 1.
In FIG. 8, CLuc activity is shown as the relative residual activity based on the CLuc activity of a sample that was measured immediately after sampling (100%).

For the molecule `O=S(=O)([O-])[O-].[Cu+2]` [CuSO4], the “transcription induction of the CUP1 promoter” value with CUP1 promoter is “transcription induction”. The “inhibition of the enzyme activity of CLuc (relative residual activity)” value in the series with CLuc [1] is given as “inhibited”.
Consider `CC[C@H](C)c1nc2c(CCCNC(=N)N)[nH]c(-c3c[nH]c4ccccc34)cn-2c1=O` [Cypridina luciferin], for which the “final luciferin concentration at which CLuc activity reaches a saturation point” value with CLuc [2] was no less than 1 µM.
As to `CCO` [ethanol], the “inhibition of the enzyme activity of CLuc (relative residual activity)” value in the series on CLuc [1] is reported as “inhibited”.
As for `O=C[C@H](O)[C@@H](O)[C@@H](O)[C@H](O)CO` [galactose], in the series on GAL1 promoter, the “transcription induction of the GAL1 promoter” value is on record as “transcription induction”.

B1: CLuc: Cypridina noctiluca-secretory luciferase (SEQ ID NO: 2); secreted from yeast as αCLuc with α-factor signal peptide (protein, listed as Cypridina noctiluca)
chain: MKTLILAVALVYCATVHCQDCPYEPDPPNTVPTSCEAKEGECIDSSCGTCTRDILSDGLCENKPGKTCCRMCQYVIECRVEAAGWFRTFYGKRFQFQEPGTYVLGQGTKGGDWKVSITLENLDGTKGAVLTKTRLEVAGDIIDIAQATENPITVNGGADPIIANPYTIGEVTIAVVEMPGFNITVIEFFKLIVIDILGGRSVRIAPDTANKGMISGLCGDLKMMEDTDFTSDPEQLAIQPKINQEFDGCPLYGNPDDVAYCKGLLEPYKDSCRNPINFYYYTISCAFARCMGGDERASHVLLDYRETCAAPETRGTCVLSGHTFYDTFDKARYQFQGPCKEILMAADCFWNTWDVKVSHRNVDSYTEVEKVRIRKQSTVVELIVDGKQILVGGEAVSVPYSSQNTSIYWQDGDILTTAILPEALVVKFNFKQLLVVHIRDPFDGKTCGICGNYNQDFSDDSFDAEGACDLTPNPPGCTEEQKPEAERLCNSLFAGQSDLDQKCNVCHKPDRVERCMYEYCLRGQQGFCDHAWEFKKECYIKHGDTLEVPDECK
modifications: α-factor signal peptide
As to B1, the “stability of CLuc as an enzyme (relative residual activity)” value in series [3] (culture supernatant incubated at 0, 25, 40, 50° C. for 0-60 minutes, FIG. 4) is on record as “highly stable”. Moreover, the “stability of CLuc at room temperature” value in series [3] (culture supernatant, room temperature, 15 minutes after sampling) is recorded as “stable”. For the same molecule, the “change in CLuc activity after sampling (relative residual activity)” value in series [4] is “almost no change”.
